{"source": "patent US20140134735A1", "about": "“Plant Cell Differentiation Promoter” (SHISEIDO COMPANY, LTD., priority 2011, published 2014)", "key": {"[1]": {"system": "Peucedanum japonicum greening tissue masses", "experiment": "Effect of KODA on differentiation from callus (greening tissue masses) in Peucedanum japonicum", "assay_type": "cell-based", "conditions": "1 μM KODA immersion", "method": "Peucedanum japonicum seeds from Yonaguni Island in Okinawa Prefecture were planted in artificial soil (Metro-Mix 360, Sun Grow Horticulture Canada Ltd.) and allowed to germinate under conditions of 20° C. and a 12-hour light-dark cycle. Two months later, the seedling plants were taken out, only the above ground portion was washed well with water, and after disinfecting with 70% alcohol (10 seconds) and a 10-fold dilution of sodium hypochlorite (7 minutes), the seedling plants were rinsed four times with pure water. The petiols were cut out and a cut measuring about 5 mm in length was aseptically made therein followed by planting in MS medium (Wako Pure Chemical Industries, solidified with 0.7% agar) containing 2,4-dichlorophenoxyacetic acid (0.022 mg/L) and kinetin (10.75 mg/L) solidified with 0.7% agar. The petiols were cultured for 2 months under conditions of 25° C. and a light-dark cycle of 12 hours to grow greening tissue masses containing incomplete leaf tissue. Two months later, the greening tissue masses were immersed in 1 μM KODA (KODA treatment group) or water (control group), and placed on MS medium (solidified with 0.7% agar) to which benzyladenine (BA) was added to a concentration of 2 ppm with indoleacetic acid (IAA) to a concentration of 0.1 ppm, 0.5 ppm or 1 ppm. As can be understood from the table, although a large number of differentiated greening plant bodies were obtained from greening tissue masses immersed in KODA, only a small number of differentiated plant bodies were obtained in the control group (water) in the case of 1.0 ppm indoleacetic acid+2.0 ppm benzyladenine."}, "[2]": {"system": "Spathiphyllum embryogenic calluses", "experiment": "Effect of KODA treatment time on differentiation from Spathiphyllum callus to adventitious embryo and germinants", "assay_type": "cell-based", "conditions": "for Dehydrated adventitious embryo weight per flask: embryos recovered 6 weeks after planting in differentiation medium", "method": "Cultured seedlings subcultured under conditions of 25° C. in a dark location (photosynthetic photon flux density: 5.7 μmole/m^2/sec, day length: 16 hours) in a solid medium obtained by adding 3% sucrose and 0.8% agar (Wako Pure Chemical Industries, Tokyo, Japan) to MS (Murashige and Skoog) medium placed in a flat box (internal volume: 300 ml) manufactured by Asahi Techno Glass followed by adjusting the pH to 5.8 were used as cultured Spathiphyllum seedlings (variety: Double Take).\nSucrose (3%), 2,4-dichlorophenoxyacetic acid (4 ppm), benzyladenine (BA) (0.2 ppm), casein acid hydrolysate (100 ppm) and 5 mM 2-morpholinoethanesulfonic acid monohydrate (MES) were added to MS medium solidified with 0.8% agar to obtain a medium for callus induction and growth (to be referred to as “subculture medium”, pH 5.8). Leaf sheaths were collected from the cultured seedlings during week 4 of subculturing by peeling from the stump and using a roughly 2 cm section containing the peeled portion (leaf sheath base) as an explant. The explants were then planted in a flat box containing the subculture medium (50 ml). When the seedlings were cultured for 8 weeks in a dark location at 25° C., calluses were induced at the peeled portions of the planted seedlings. Embryogenic calluses were selected by subculturing these calluses in 0.2 g/container each of subculture medium and culturing for 1 month. The embryogenic calluses were able to be maintained for 2 years while retaining adventitious embryo induction potency by subculturing to the subculture medium every 4 weeks.\n0.05 g aliquots of the embryonic calluses were planted in 500 ml Erlenmeyer flasks containing 160 ml of MS liquid medium containing sucrose (1%), fructose (1.1%), BA (0.1 ppm) and MES (5 mM) (pH 5.8, to be referred to as “differentiation medium”), followed by shake culturing (80 rpm) for 6 weeks at 25° C. in a dark location (day length: 16 hours, synthetic photon flux density: 22.8 μmole/m^2/sec) to obtain adventitious embryos. 0.2 g aliquots of these adventitious embryos were implanted in MS medium containing sucrose (3%) and obtained by solidifying with agar (0.8%) (pH 5.8, to be referred to as “germination medium”) followed by culturing for 8 weeks at 25° C. in a dark location (day length: 16 hours, photosynthetic photon flux density: 5.7 μmole/m^2/sec) to cause the adventitious embryos to germinate and obtain complete plants.\nEmbryogenic calluses subcultured in subculture medium were subcultured in fresh subculture medium followed by dropping a 3 ppm aqueous solution of KODA onto the calluses after 1 week (7 days), 2 weeks (14 days) or 3 weeks ([…]). The cultured calluses were planted in liquid differentiation medium 3 weeks after the start of subculturing, and the differentiated adventitious embryos were recovered 6 weeks later (FIG. 1), dehydrated and weighed after dehydrating. The adventitious embryos were then planted in germination medium and the numbers of resulting germinants were counted. The number of germinants per 1 g of dehydrated adventitious embryos was calculated from the measurement results (FIG. 2). […] The effect of KODA on inducing adventitious embryos in calluses was therefore thought to be specific to the time at which it is applied."}, "[3]": {"system": "Spathiphyllum embryogenic calluses", "experiment": "Effect of KODA concentration on differentiation from Spathiphyllum callus to normally regenerated plant bodies", "assay_type": "cell-based", "conditions": "0.03, 0.3 or 3 ppm KODA dropped onto calluses; 8 weeks", "description": "Embryogenic calluses subcultured in subculture medium were planted in fresh differentiation medium followed by dropping a 0.03 ppm, 0.3 ppm or 3 ppm aqueous solution of KODA onto the calluses and recording the number of normally regenerated plant bodies 8 weeks later."}, "[4]": {"system": "tobacco callus", "experiment": "Effect of KODA on differentiation from tobacco callus", "assay_type": "cell-based, Nicotiana tabacum", "conditions": "100 μM KODA immersion", "method": "After washing tobacco (Nicotiana tabacum) seeds with 70% ethanol, the surfaces of the seeds were sterilized for 3 minutes with 5% sodium hypochlorite and 0.05% Tween 20 followed by washing 5 times with sterilized water. After washing, the seeds were immersed in an aqueous KODA solution (100 μM) followed by planting the washed seeds on solid MS medium (Wako Pure Chemical Industries) containing 3% sucrose, 0.8% agar (Wako Pure Chemical Industries) and 2,4-dichlorophenoxyacetic acid (Kanto Chemical, 3 ppm) with kinetin (Nakarai Tesque, 0.1 ppm) and adjusted to pH 5.7 to induce calluses for 3 weeks under conditions of 25° C. and a light-dark cycle of 16 hours.\nThe above ground portions of the tobacco seedlings that underwent callus induction were removed, and only the root portions in which calluses were present were treated by immersing in 100 μM KODA (KODA treatment group) or water (control group) followed by inducing differentiation of the above ground portions under conditions of 25° C. and a light-dark cycle of 16 hours in solid differentiation medium obtained by adding 3% sucrose, 0.8% agar (Wako Pure Chemical Industries), […] (Nacalai Tesque, 0.2 ppm) and 6-benzyladenine (Nacalai Tesque, 2 ppm) to MS medium contained in plastic Petri dishes and adjusting to pH 5.7. Culturing in the differentiation medium was carried out by transferring to fresh differentiation medium after culturing for 2 weeks, namely for a total of 4 weeks. The resulting above ground portions were excised with a scalpel. The excised above ground portions were immersed in 100 μM aqueous KODA solution (KODA treatment group) or water (control group) followed by planting it in MS medium (100 mL) contained in culture bottles (CB-3, As One), which is prepared by adding sucrose (3%) to MS medium, and adjusting pH to 5.7, and is solidified with 0.8% agar, and then cultured for 4 weeks under conditions of 25° C. and light-dark cycle of 16 hours so as to differentiate below ground portions. […]"}, "[5]": {"conditions": "normal individuals, freeze-dried"}}, "data": [{"compound": "CC/C=C\\C/C=C\\CC(=O)C(O)CCCCCCCC(=O)O", "note": "(centres unmarked) [KODA, 9-hydroxy-10-oxo-12(Z),15(Z)-octadecadienoic acid]", "values": [{"measurement": "No. of redifferentiated greening plant bodies", "setting": "[1]; IAA (0.1 ppm) + BA (2.0 ppm)", "result": 29}, {"measurement": "No. of redifferentiated greening plant bodies", "setting": "[1]; IAA (0.5 ppm) + BA (2.0 ppm)", "result": 20}, {"measurement": "No. of redifferentiated greening plant bodies", "setting": "[1]; IAA (1.0 ppm) + BA (2.0 ppm)", "result": 27}, {"measurement": "No. of germinants per flask", "setting": "[2]; 3 ppm KODA dropped 1 week after subculture", "result": 431}, {"measurement": "No. of germinants per flask", "setting": "[2]; 3 ppm KODA dropped 2 weeks after subculture", "result": 702}, {"measurement": "No. of germinants per flask", "setting": "[2]; 3 ppm KODA dropped 3 weeks after subculture", "result": 578}, {"measurement": "Dehydrated adventitious embryo weight per flask", "setting": "[2]; 3 ppm aqueous KODA dropped onto calluses 1 week after subculture", "result": 7.1, "unit": "g"}, {"measurement": "Dehydrated adventitious embryo weight per flask", "setting": "[2]; 3 ppm aqueous KODA dropped onto calluses 2 weeks after subculture", "result": 7.2, "unit": "g"}, {"measurement": "Dehydrated adventitious embryo weight per flask", "setting": "[2]; 3 ppm aqueous KODA dropped onto calluses 3 weeks after subculture", "result": 6.8, "unit": "g"}, {"measurement": "adventitious embryos recovered in comparison with control group (FIG. 1)", "setting": "[2]; KODA treatment group, after two weeks", "result": "A large number of adventitious embryos were recovered"}, {"measurement": "number of redifferentiated (normally regenerated) plant bodies versus control (FIG. 4)", "setting": "[3]", "result": "increase in comparison with a control group at each concentration"}, {"measurement": "normal individuals among the redifferentiated individuals", "setting": "[4]; control group 30%", "result": 60, "unit": "%"}, {"measurement": "dry weight of above ground portions versus control (FIG. 6)", "setting": "[4]; [5]", "result": "no significant difference at a level of significance of 5%"}, {"measurement": "dry weight of below ground portions versus control (FIG. 6)", "setting": "[4]; [5]", "result": "a significant difference was confirmed at a level of significance of 5%"}]}]}
